According to patent US20240173303A1, “1,2,5-Oxadiazoles As Inhibitors Of Indoleamine 2,3- Dioxygenase” (Incyte Corporation, priority 2008, published 2024):

Biological target: Human indoleamine 2,3-dioxygenase (IDO) (Homo sapiens (Human), UniProt P14902)
Assay: Human Indoleamine 2,3-Dioxygenase (IDO) Enzyme Assay
Type: biochemical
Conditions: Table 2; assay of Example A; 95 nM IDO, 2 mM D-Trp, pH 6.5, room temperature
Description: Human indoleamine 2,3-dioxygenase (IDO) with an N-terminal His tag was expressed in E. coli and purified to homogeneity. IDO catalyzes the oxidative cleavage of the pyrrole ring of the indole nucleus of tryptophan to yield N′-formylkynurenine.

Sequence of Human indoleamine 2,3-dioxygenase (IDO) (P14902 whole entry): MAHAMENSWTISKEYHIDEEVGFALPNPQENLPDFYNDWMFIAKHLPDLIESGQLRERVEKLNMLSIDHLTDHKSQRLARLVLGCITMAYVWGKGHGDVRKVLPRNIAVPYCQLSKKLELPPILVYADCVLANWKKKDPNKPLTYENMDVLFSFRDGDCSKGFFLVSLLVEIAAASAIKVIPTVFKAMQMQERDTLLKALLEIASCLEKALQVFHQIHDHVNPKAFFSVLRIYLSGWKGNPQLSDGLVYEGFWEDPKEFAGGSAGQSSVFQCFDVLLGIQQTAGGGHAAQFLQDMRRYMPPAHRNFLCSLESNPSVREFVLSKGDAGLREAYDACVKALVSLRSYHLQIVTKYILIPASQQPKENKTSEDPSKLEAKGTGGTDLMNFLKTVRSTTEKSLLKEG

| IC50 | SMILES |
| --- | --- |
| < 100 nM | NS(=O)(=O)NCCNc1nonc1C(=NO)Nc1ccc(F)c(C(F)(F)F)c1 [Example 9, 4-({2-[(Aminosulfonyl)amino]ethyl}amino)-N-[4-fluoro-3-(trifluoromethyl)phenyl]-N′-hydroxy-1,2,5-oxadiazole-3-carboximidamide] |
| < 200 nM | CS(=O)(=O)NCCCNc1nonc1C(=NO)Nc1cccc(C(F)(F)F)c1 [Example 16, N′-Hydroxy-4-({3-[(methylsulfonyl)amino]propyl}amino)-N-[3-(trifluoromethyl)phenyl]-1,2,5-oxadiazole-3-carboximidamide] |
| < 100 nM | NS(=O)(=O)NCCCNc1nonc1C(=NO)Nc1ccc(F)c(Br)c1 [Example 3, 4-({3-[(Aminosulfonyl)amino]propyl}amino)-N-(3-bromo-4-fluorophenyl)-N′-hydroxy-1,2,5-oxadiazole-3-carboximidamide] |
| < 200 nM | NS(=O)(=O)NCCNc1nonc1C(=NO)Nc1ccc(F)c(Cl)c1 [Example 5, 4-({2-[(Aminosulfonyl)amino]ethyl}amino)-N-(3-chloro-4-fluorophenyl)-N′-hydroxy-1,2,5-oxadiazole-3-carboximidamide] |
| < 100 nM | NS(=O)(=O)NCCCNc1nonc1C(=NO)Nc1ccc(F)c(C(F)(F)F)c1 [Example 11, 4-({3-[(Aminosulfonyl)amino]propyl}amino)-N-[4-fluoro-3-(trifluoromethyl)phenyl]-N′-hydroxy-1,2,5-oxadiazole-3-carboximidamide] |
| < 100 nM | CS(=O)(=O)NCCCNc1nonc1C(=NO)Nc1ccc(F)c(Br)c1 [Example 4, N-(3-Bromo-4-fluorophenyl)-N′-hydroxy-4-({3-[(methylsulfonyl)amino]propyl}amino)-1,2,5-oxadiazole-3-carboximidamide] |
| < 200 nM | CS(=O)(=O)NCCCNc1nonc1C(=NO)Nc1ccc(F)c(Cl)c1 [Example 8, N-(3-Chloro-4-fluorophenyl)-N′-hydroxy-4-({3-[(methylsulfonyl)amino]propyl}amino)-1,2,5-oxadiazole-3-carboximidamide] |
| < 200 nM | CS(=O)(=O)NCCNc1nonc1C(=NO)Nc1ccc(F)c(Cl)c1 [Example 6, N-(3-Chloro-4-fluorophenyl)-N′-hydroxy-4-({2-[(methylsulfonyl)amino]ethyl}amino)-1,2,5-oxadiazole-3-carboximidamide] |
| < 500 nM | Cc1cc(NC(=NO)c2nonc2NCCNS(C)(=O)=O)ccc1F [Example 17, N-(4-Fluoro-3-methylphenyl)-N′-hydroxy-4-({2-[(methylsulfonyl)amino]ethyl}amino)-1,2,5-oxadiazole-3-carboximidamide] |
| < 200 nM | CS(=O)(=O)NCCNc1nonc1C(=NO)Nc1cccc(C(F)(F)F)c1 [Example 14, N′-Hydroxy-4-({2-[(methylsulfonyl)amino]ethyl}amino)-N-[3-(trifluoromethyl)phenyl]-1,2,5-oxadiazole-3-carboximidamide] |
| < 100 nM | CS(=O)(=O)NCCNc1nonc1C(=NO)Nc1ccc(F)c(C(F)(F)F)c1 [Example 10, N-[4-Fluoro-3-(trifluoromethyl)phenyl]-N′-hydroxy-4-({2-[(methylsulfonyl)amino]ethyl}amino)-1,2,5-oxadiazole-3-carboximidamide] |
| < 750 nM | N#Cc1cc(NC(=NO)c2nonc2NCCNS(N)(=O)=O)ccc1F [Example 18, 4-({2-[(Aminosulfonyl)amino]ethyl}amino)-N-(3-cyano-4-fluorophenyl)-N′-hydroxy-1,2,5-oxadiazole-3-carboximidamide] |
| < 500 nM | NS(=O)(=O)NCCNc1nonc1C(=NO)Nc1cccc(C(F)(F)F)c1 [Example 13, 4-({2-[(Aminosulfonyl)amino]ethyl}amino)-N′-hydroxy-N-[3-(trifluoromethyl)phenyl]-1,2,5-oxadiazole-3-carboximidamide] |
| < 500 nM | CS(=O)(=O)NCCNc1nonc1C(=NO)Nc1ccc(F)c(C#N)c1 [Example 19, N-(3-Cyano-4-fluorophenyl)-N′-hydroxy-4-({2-[(methylsulfonyl)amino]ethyl}amino)-1,2,5-oxadiazole-3-carboximidamide] |
| < 200 nM | NS(=O)(=O)NCCCNc1nonc1C(=NO)Nc1cccc(C(F)(F)F)c1 [Example 15, 4-({3-[(Aminosulfonyl)amino]propyl}amino)-N′-hydroxy-N-[3-(trifluoromethyl)phenyl]-1,2,5-oxadiazole-3-carboximidamide] |
| < 200 nM | NS(=O)(=O)NCCCNc1nonc1C(=NO)Nc1ccc(F)c(Cl)c1 [Example 7, 4-({3-[(Aminosulfonyl)amino]propyl}amino)-N-(3-chloro-4-fluorophenyl)-N′-hydroxy-1,2,5-oxadiazole-3-carboximidamide] |
| < 100 nM | CS(=O)(=O)NCCCNc1nonc1C(=NO)Nc1ccc(F)c(C(F)(F)F)c1 [Example 12, N-[4-Fluoro-3-(trifluoromethyl)phenyl]-N′-hydroxy-4-({3-[(methylsulfonyl)amino]propyl}amino)-1,2,5-oxadiazole-3-carboximidamide] |

Same assay, conditions: Table 3; assay of Example A; 95 nM IDO, 2 mM D-Trp, pH 6.5, room temperature

| IC50 | SMILES |
| --- | --- |
| < 500 nM | NS(=O)(=O)NCCNc1nonc1C(=NO)NCc1cc(Br)co1 [Example 20, 4-({2-[(Aminosulfonyl)amino]ethyl}amino)-N-[(4-bromo-2-furyl)methyl]-N′-hydroxy-1,2,5-oxadiazole-3-carboximidamide] |
| < 750 nM | NS(=O)(=O)NCCNc1nonc1C(=NO)NCc1cc(Cl)co1 [Example 21, 4-({2-[(Aminosulfonyl)amino]ethyl}amino)-N-[(4-chloro-2-furyl)methyl]-N′-hydroxy-1,2,5-oxadiazole-3-carboximidamide] |
